Converted amounts (≈) assume the structure as drawn.
Tests used:
Candida albicans = test: […] activity against Candida albicans ATCC 10231 assessed as reduction in fungal growth incubated for 24 hrs by microdilution method; format: functional
DLD-1 = test: Cytotoxicity against human DLD-1 cells assessed as reduction in cell viability incubated for 48 hrs by Hoechst staining based assay; format: functional; details: DLD-1, 48 h
Staphylococcus aureus = test: Antibacterial activity against Staphylococcus aureus ATCC 25923 assessed as reduction in bacterial growth incubated for 24 hrs by microdilution method; format: functional
[1] = Cytotoxicity against human WS1 cells assessed as reduction in cell viability incubated for 48 hrs by Hoechst staining based assay; details: WS1, 48 h
A549 = test: Cytotoxicity against human A549 cells assessed as reduction in cell viability incubated for 48 hrs by Hoechst staining based assay; format: functional; details: A549, 48 h

Compound	MIC90 (Candida albicans) [µM]	IC50 (DLD-1) [nM]	MIC90 (Staphylococcus aureus) [µM]	IC50 [1] [nM]	IC50 (A549) [nM]
C[S+]([O-])/C=C/c1cc(=O)c2cc(O)ccc2o1 (racemic)	> 100	> 10000	24 (≈ 6.01 µg/mL)	7500	10500
COc1ccc2oc(/C=C/[S+](C)[O-])cc(=O)c2c1 (racemic)	> 100	5700	6.1 (≈ 1.61 µg/mL)	1300	1600
COc1ccc2c(=O)cc(/C=C/[S+](C)[O-])oc2c1 (racemic)	> 100	7800	20 (≈ 5.29 µg/mL)	1800	2200
C[S+]([O-])/C=C/c1cc(=O)c2ccccc2o1 (racemic)	> 100	8000	9 (≈ 2.11 µg/mL)	2000	1900
CCCCC(=O)Oc1ccc2oc(/C=C/[S+](C)[O-])cc(=O)c2c1 (racemic)	47 (≈ 15.7 µg/mL)	6700	5.1 (≈ 1.71 µg/mL)	1800	2400
C[S+]([O-])/C=C/c1cc(=O)c2ccc3ccccc3c2o1 (racemic)	> 100	7000	4.8 (≈ 1.36 µg/mL)	1900	1400
Cc1ccc2c(=O)cc(/C=C/[S+](C)[O-])oc2c1 (racemic)	> 100	7000	10 (≈ 2.48 µg/mL)	1900	2000
C[S+]([O-])/C=C/c1cc(=O)c2cc(Cl)ccc2o1 (racemic)	> 100	6500	2.7 (≈ 0.726 µg/mL)	1600	1700
CC(C)C(=O)Oc1ccc2oc(/C=C/[S+](C)[O-])cc(=O)c2c1 (racemic)	> 100	9100	9 (≈ 2.88 µg/mL)	1900	2400
C[S+]([O-])/C=C/c1cc(=O)c2cc(Br)ccc2o1 (racemic)	47 (≈ 14.7 µg/mL)	4500	2.5 (≈ 0.783 µg/mL)	1000	1100
COc1cccc2oc(/C=C/[S+](C)[O-])cc(=O)c12 (racemic)	> 100	> 10000	43 (≈ 11.4 µg/mL)	3800	3800
CC(=O)Oc1ccc2oc(/C=C/[S+](C)[O-])cc(=O)c2c1 (racemic)	> 100	> 10000	11 (≈ 3.22 µg/mL)	2500	4100
CC(C)Oc1ccc2oc(/C=C/[S+](C)[O-])cc(=O)c2c1 (racemic)	84 (≈ 24.6 µg/mL)	8000	11.1 (≈ 3.25 µg/mL)	1400	1500
C[S+]([O-])/C=C/c1cc(=O)c2cc(C#N)ccc2o1 (racemic)	> 100	> 10000	5.6 (≈ 1.45 µg/mL)	> 10000	> 10000
C[S+]([O-])/C=C/c1oc2ccccc2c(=O)c1Cc1ccccc1 (racemic)	> 100	5100	2.9 (≈ 0.941 µg/mL)	1200	1300
C[S+]([O-])/C=C/c1cc(=O)c2cc(F)ccc2o1 (racemic)	> 100	7000	5.3 (≈ 1.34 µg/mL)	1700	2100
CCCCCOc1ccc2oc(/C=C/[S+](C)[O-])cc(=O)c2c1 (racemic)	7 (≈ 2.24 µg/mL)	6600	4.3 (≈ 1.38 µg/mL)	1700	1600
CC(C)COc1ccc2oc(/C=C/[S+](C)[O-])cc(=O)c2c1 (racemic)	13.4 (≈ 4.11 µg/mL)	5000	5.7 (≈ 1.75 µg/mL)	1200	1100

Compound	MIC90 (Candida albicans) [µM]	IC50 (DLD-1) [nM]	MIC90 (Staphylococcus aureus) [µM]	IC50 [1] [nM]	IC50 (A549) [nM]
Cc1c(/C=C/[S+](C)[O-])oc2ccccc2c1=O (racemic)	> 100	7200	20 (≈ 4.97 µg/mL)	2100	1500
COc1cccc2c(=O)cc(/C=C/[S+](C)[O-])oc12 (racemic)	> 100	9000	11 (≈ 2.91 µg/mL)	1900	2200
CCOc1ccc2oc(/C=C/[S+](C)[O-])cc(=O)c2c1 (racemic)	67 (≈ 18.6 µg/mL)	4900	11.4 (≈ 3.17 µg/mL)	2000	1500
CCCOc1ccc2oc(/C=C/[S+](C)[O-])cc(=O)c2c1 (racemic)	39 (≈ 11.4 µg/mL)	6200	11 (≈ 3.22 µg/mL)	1900	1100
CCCC(=O)Oc1ccc2oc(/C=C/[S+](C)[O-])cc(=O)c2c1 (racemic)	> 100	8700	7.2 (≈ 2.31 µg/mL)	1500	2200
Cc1ccc2oc(/C=C/[S+](C)[O-])cc(=O)c2c1 (racemic)	> 100	7000	10 (≈ 2.48 µg/mL)	1800	1700
CCCCOc1ccc2oc(/C=C/[S+](C)[O-])cc(=O)c2c1 (racemic)	14.1 (≈ 4.32 µg/mL)	4800	5.4 (≈ 1.65 µg/mL)	1100	1400
C[S+]([O-])/C=C/c1cc(=O)c2cc(OC(=O)C(C)(C)C)ccc2o1 (racemic)	71 (≈ 23.7 µg/mL)	8000	10 (≈ 3.34 µg/mL)	1000	1600
CCC(=O)Oc1ccc2oc(/C=C/[S+](C)[O-])cc(=O)c2c1 (racemic)	> 100	9000	10 (≈ 3.06 µg/mL)	2100	2400
CC(C)CCOc1ccc2oc(/C=C/[S+](C)[O-])cc(=O)c2c1 (racemic)	8.4 (≈ 2.69 µg/mL)	4100	2.8 (≈ 0.897 µg/mL)	850	1000
C[S+]([O-])/C=C/c1cc(=O)c2cc3c(cc2o1)OCO3 (racemic)	> 100	6000	39 (≈ 10.9 µg/mL)	2000	2100
CC(C)CC(=O)Oc1ccc2oc(/C=C/[S+](C)[O-])cc(=O)c2c1 (racemic)	72 (≈ 24.1 µg/mL)	6100	5.1 (≈ 1.71 µg/mL)	1700	2300
C[S+]([O-])/C=C/c1cc(=O)c2c(ccc3ccccc32)o1 (racemic)	> 100	4300	18 (≈ 5.12 µg/mL)	880	940
Cc1cccc2oc(/C=C/[S+](C)[O-])cc(=O)c12 (racemic)	> 100	5500	23 (≈ 5.71 µg/mL)	1900	1300
Cc1cccc2c(=O)cc(/C=C/[S+](C)[O-])oc12 (racemic)	> 100	6800	10 (≈ 2.48 µg/mL)	2200	1700
C[C@@H]1[C@H](O)[C@@H](C)/C=C/C=C/C=C/C=C/C=C/C=C/C=C/[C@H](O[C@@H]2O[C@H](C)[C@@H](O)[C@H](N)[C@@H]2O)C[C@@H]2O[C@](O)(C[C@@H](O)C[C@@H](O)[C@H](O)CC[C@@H](O)C[C@@H](O)CC(=O)O[C@H]1C)C[C@H](O)[C@H]2C(=O)O [AMPHOTERICIN B]	1.4 (≈ 1.29 µg/mL)				
COc1cc([C@@H]2c3cc4c(cc3[C@@H](O[C@@H]3O[C@@H]5CO[C@@H](C)O[C@H]5[C@H](O)[C@H]3O)[C@H]3COC(=O)[C@H]23)OCO4)cc(OC)c1O [ETOPOSIDE]		570		47000	4800
GENTAMICIN			0.09		

From ChEMBL document CHEMBL4828777, “Effect of the Chromone Core Substitution of Dirchromone on the Resultant Biological Activities” (J Nat Prod, 2021)
